The structures appear in SMILES notation.

This assay deals with ATX (Mus musculus (Mouse), UniProt Q9R1E6). The experiment in a line: Mice serum ATX inhibitory activity (IC50 determination). The class given is biochemical. On the procedure:
ATX Inhibitory activity was determined in a biochemical or whole blood assay as described previously (Bretschneider, T. et al., SLAS Discov 2017, 22, 425). The biochemical reaction consisted of 50 mM Tris (pH 8.0), 3 mM KCl, 1 mM CaCl2, 1 mM Mg Cl2, […] NaCl and 0.1% bovine serum albumin, which was supplemented with 5 nM recombinant rat ATX, 5 μM 18:1 LPC and the test compound (0.1-10 μM). The reaction was stopped at 2 h by the addition of butanol, prior to the RapidFire-MS-based analysis.
The whole blood assay consisted of 45 μL μL heparinized mice/rat whole blood and the test compound (0.12-100 μM). The reaction was stopped after 1 h at 37° C. by addition of 100 μL 40 mM disodium hydrogen phosphate buffer containing 30 mM citric acid (pH 4) and 1 μM 17:0 LPA (internal standard). Afterwards the samples were treated a described above and analysed by LC-MS/MS. The data was analyzed using graph pad prism (v 7.03) to arrive at the half-maximal inhibitory concentrations (IC50) of the test compounds.
In general, IC50 refers to the concentration that gives 50% inhibition. As for `CC(C)[C@@H](NC(=O)c1cc(C(F)(F)F)ccc1F)C(=O)N1CCC2(CC1)C(=O)N(C)C(=O)C2c1ccccc1` (stereo partly drawn) [Compound 1, 2-fluoro-N-((2R)-3-methyl-1-(2-methyl-1,3-dioxo-4-phenyl-2,8-diazaspiro[4.5]decan-8-yl)-1-oxobutan-2-yl)-5-(trifluoromethyl)benzamide], the IC50 is 91 nM.
In turn, `CC(C)[C@@H](NC(=O)c1cc(C(F)(F)F)ccc1F)C(=O)N1CCC2(CC1)C(=O)N(CCN)C(=O)C2c1ccccc1` (stereo partly drawn) [Compound 33, N-((2R)-1-(2-(2-aminoethyl)-1,3-dioxo-4-phenyl-2,8-diazaspiro[4.5]decan-8-yl)-3-methyl-1-oxobutan-2-yl)-2-fluoro-5-(trifluoromethyl)benzamide] came in with an IC50 of 69.8 nM.
For the compound `CC(C)[C@@H](NC(=O)c1cc(C(F)(F)F)ccc1F)C(=O)N1CCC2(CC1)C(=O)N(C)CC2c1ccccc1` (stereo partly drawn) [Compound 44, 2-fluoro-N-((2R)-3-methyl-1-(2-methyl-1-oxo-4-phenyl-2,8-diazaspiro[4.5]decan-8-yl)-1-oxobutan-2-yl)-5-(trifluoromethyl)benzamide], half-maximal inhibition (IC50) was put at 4 nM.
The compound `CC(C)[C@@H](NC(=O)c1cc(C(F)(F)F)ccc1F)C(=O)N1CCC2(CC1)C(=O)NCC2c1ccccc1` (stereo partly drawn) [Compound 45, 2-fluoro-N-((2R)-3-methyl-1-oxo-1-(1-oxo-4-phenyl-2,8-diazaspiro[4.5]decan-8-yl)butan-2-yl)-5-(trifluoromethyl)benzamide] showed an IC50 of 19.2 nM.
The compound `CC(C)[C@@H](NC(=O)c1cc(C(F)(F)F)ccc1F)C(=O)N1CCC2(CC1)C(=O)N(C)CC2c1cccnc1` (stereo partly drawn) [Compound 56, 2-fluoro-N-((2R)-3-methyl-1-(2-methyl-1-oxo-4-(pyridin-3-yl)-2,8-diazaspiro[4.5]decan-8-yl)-1-oxobutan-2-yl)-5-(trifluoromethyl)benzamide] displayed an IC50 of 13.3 nM.
As for `CC(C)[C@@H](NC(=O)c1cc(C(F)(F)F)ccc1F)C(=O)N1CCC2(CC1)C(=O)NCC2c1cccnc1` (stereo partly drawn) [Compound 57, 2-fluoro-N-((2R)-3-methyl-1-oxo-1-(1-oxo-4-(pyridin-3-yl)-2,8-diazaspiro[4.5]decan-8-yl)butan-2-yl)-5-(trifluoromethyl)benzamide], 56.2 nM corresponded to half-maximal inhibition (IC50).
Take `CC(C)[C@@H](NC(=O)c1cc(C(F)(F)F)ccc1F)C(=O)N1CCC2(CC1)C(=O)N(C)CC2c1ccc2[nH]ncc2c1` (stereo partly drawn) [Compound 58, N-((2R)-1-(4-(1H-indazol-5-yl)-2-methyl-1-oxo-2,8-diazaspiro[4.5]decan-8-yl)-3-methyl-1-oxobutan-2-yl)-2-fluoro-5-(trifluoromethyl)benzamide]: half-maximal inhibition (IC50) was put at 58.9 nM.
For `CC(C)[C@@H](NC(=O)c1cc(C(F)(F)F)ccc1F)C(=O)N1CCC2(CC1)CN(C)CC2c1ccccc1` (stereo partly drawn) [Compound 62, 2-fluoro-N-((2R)-3-methyl-1-(2-methyl-4-phenyl-2,8-diazaspiro[4.5]decan-8-yl)-1-oxobutan-2-yl)-5-(trifluoromethyl)benzamide], the midpoint of inhibition, the IC50, lay at 6.6 nM.
In turn, `CC(C)[C@@H](NC(=O)c1cc(C(F)(F)F)ccc1F)C(=O)N1CCC2(CC1)CN(C)CC2c1cccnc1` (stereo partly drawn) [Compound 64, 2-fluoro-N-((2R)-3-methyl-1-(2-methyl-4-(pyridin-3-yl)-2,8-diazaspiro[4.5]decan-8-yl)-1-oxobutan-2-yl)-5-(trifluoromethyl)benzamide] yielded an IC50 of 13.4 nM.
For the compound `CC(C)[C@@H](NC(=O)c1cc(C(F)(F)F)ccc1F)C(=O)N1CCC2(CC1)CN(C)CC2c1ccc2[nH]ncc2c1` (stereo partly drawn) [Compound 65, N-((2R)-1-(4-(1H-indazol-5-yl)-2-methyl-2,8-diazaspiro[4.5]decan-8-yl)-3-methyl-1-oxobutan-2-yl)-2-fluoro-5-(trifluoromethyl)benzamide], the midpoint of inhibition, the IC50, lay at 6.9 nM.
Regarding `CC(C)[C@@H](NC(=O)c1cc(C(F)(F)F)ccc1F)C(=O)N1CCC2(CC1)C(=O)NCC2c1ccc(F)cc1` (stereo partly drawn) [Compound 102, 2-fluoro-N-((2R)-1-(4-(4-fluorophenyl)-1-oxo-2,8-diazaspiro[4.5]decan-8-yl)-3-methyl-1-oxobutan-2-yl)-5-(trifluoromethyl)benzamide], the IC50 is 22.6 nM.
With `CC(C)[C@@H](NC(=O)c1cc(C(F)(F)F)ccc1F)C(=O)N1CCC2(CC1)C(=O)N(C)CC2c1ccc(F)cc1` (stereo partly drawn) [Compound 103, 2-fluoro-N-((2R)-1-(4-(4-fluorophenyl)-2-methyl-1-oxo-2,8-diazaspiro[4.5]decan-8-yl)-3-methyl-1-oxobutan-2-yl)-5-(trifluoromethyl)benzamide], the IC50 amounted to 6.9 nM.
On to `CCN1CC(c2ccc(F)cc2)C2(CCN(C(=O)[C@H](NC(=O)c3cc(C(F)(F)F)ccc3F)C(C)C)CC2)C1=O` (stereo partly drawn) [Compound 104, N-((2R)-1-(2-ethyl-4-(4-fluorophenyl)-1-oxo-2,8-diazaspiro[4.5]decan-8-yl)-3-methyl-1-oxobutan-2-yl)-2-fluoro-5-(trifluoromethyl)benzamide], for which the IC50 was found to be 11.7 nM.
Compound `COc1ccc(F)c(C(=O)N[C@@H](C(=O)N2CCC3(CC2)C(=O)N(C)CC3c2ccccc2)C(C)C)c1` (stereo partly drawn) [Compound 105, 2-fluoro-5-methoxy-N-((2R)-3-methyl-1-(2-methyl-1-oxo-4-phenyl-2,8-diazaspiro[4.5]decan-8-yl)-1-oxobutan-2-yl)benzamide] returned an IC50 of 25.6 nM.
The compound `CC(C)[C@@H](NC(=O)c1cc(C(F)(F)F)ccc1F)C(=O)N1CCC2(CC1)C(=O)N(C)C=C2c1ccccc1` [Compound 106, (R)-2-fluoro-N-(3-methyl-1-(2-methyl-1-oxo-4-phenyl-2,8-diazaspiro[4.5]dec-3-en-8-yl)-1-oxobutan-2-yl)-5-(trifluoromethyl)benzamide] had an IC50 of 55.6 nM.
As for `CC(C)[C@@H](NC(=O)c1ccccc1F)C(=O)N1CCC2(CC1)C(=O)N(C)CC2c1ccccc1` (stereo partly drawn) [Compound 107, 2-fluoro-N-((2R)-3-methyl-1-(2-methyl-1-oxo-4-phenyl-2,8-diazaspiro[4.5]decan-8-yl)-1-oxobutan-2-yl)benzamide], the IC50 stood at 66.8 nM.
On to `CC(C)[C@@H](NC(=O)c1cccc(C(F)(F)F)c1)C(=O)N1CCC2(CC1)C(=O)N(C)CC2c1ccccc1` (stereo partly drawn) [Compound 108, N-((2R)-3-methyl-1-(2-methyl-1-oxo-4-phenyl-2,8-diazaspiro[4.5]decan-8-yl)-1-oxobutan-2-yl)-3-(trifluoromethyl)benzamide], for which the IC50 is 16.4 nM.
With `CC(C)[C@@H](NC(=O)c1cc(OC(F)(F)F)ccc1F)C(=O)N1CCC2(CC1)C(=O)N(C)CC2c1ccccc1` (stereo partly drawn) [Compound 110, 2-fluoro-N-((2R)-3-methyl-1-(2-methyl-1-oxo-4-phenyl-2,8-diazaspiro[4.5]decan-8-yl)-1-oxobutan-2-yl)-5-(trifluoromethoxy)benzamide], it took 3.8 nM to reach half-maximal inhibition (IC50).
In the case of `CC(C)[C@@H](NC(=O)c1cc(C(F)(F)F)ccc1F)C(=O)N1CCC2(CC1)C(=O)N(C(C)C)CC2c1ccc(F)cc1` (stereo partly drawn) [Compound 111, 2-fluoro-N-((2R)-1-(4-(4-fluorophenyl)-2-isopropyl-1-oxo-2,8-diazaspiro[4.5]decan-8-yl)-3-methyl-1-oxobutan-2-yl)-5-(trifluoromethyl)benzamide], the IC50 was 34.2 nM.
`CC(C)[C@@H](NC(=O)c1cc(C(F)(F)F)ccc1F)C(=O)N1CCC2(CC1)C(=O)N(CC1CC1)CC2c1ccc(F)cc1` (stereo partly drawn) [Compound 112, N-((2R)-1-(2-(cyclopropylmethyl)-4-(4-fluorophenyl)-1-oxo-2,8-diazaspiro[4.5]decan-8-yl)-3-methyl-1-oxobutan-2-yl)-2-fluoro-5-(trifluoromethyl)benzamide] returned an IC50 of 73.4 nM.
Regarding `CC(C)[C@@H](NC(=O)c1cc(C(F)(F)F)ccc1F)C(=O)N1CCC2(CC1)C(=O)N(CC1CC1)CC2c1cccnc1` (stereo partly drawn) [Compound 113, N-((2R)-1-(2-(cyclopropylmethyl)-1-oxo-4-(pyridin-3-yl)-2,8-diazaspiro[4.5]decan-8-yl)-3-methyl-1-oxobutan-2-yl)-2-fluoro-5-(trifluoromethyl)benzamide], the IC50 came to 102 nM.
In the case of `COc1ccc(C2CN(C)C(=O)C23CCN(C(=O)[C@H](NC(=O)c2cc(C(F)(F)F)ccc2F)C(C)C)CC3)cc1` (stereo partly drawn) [Compound 114, 2-fluoro-N-((2R)-1-(4-(4-methoxyphenyl)-2-methyl-1-oxo-2,8-diazaspiro[4.5]decan-8-yl)-3-methyl-1-oxobutan-2-yl)-5-(trifluoromethyl)benzamide] it was 1.7 nM; in that of `CC(C)[C@@H](NC(=O)c1cc(C(F)(F)F)ccc1F)C(=O)N1CCC2(CC1)OC(=O)NC2c1ccccc1` (stereo partly drawn) [Compound 115, 2-fluoro-N-((2R)-3-methyl-1-oxo-1-(2-oxo-4-phenyl-1-oxa-3,8-diazaspiro[4.5]decan-8-yl)butan-2-yl)-5-(trifluoromethyl)benzamide], 74.4 nM.
With `CC(C)[C@@H](NC(=O)c1cc(C(F)(F)F)ccc1F)C(=O)N1CCC2(CC1)CN(C)CC2c1ccc(F)cc1` (stereo partly drawn) [Compound 119, 2-fluoro-N-((2R)-1-(4-(4-fluorophenyl)-2-methyl-2,8-diazaspiro[4.5]decan-8-yl)-3-methyl-1-oxobutan-2-yl)-5-(trifluoromethyl)benzamide], the IC50 is 7.1 nM.
The compound `CC(C)[C@@H](NC(=O)c1cc(C(F)(F)F)ccc1F)C(=O)N1CCC2(CC1)CN(C(C)C)CC2c1ccc(F)cc1` (stereo partly drawn) [Compound 120, 2-fluoro-N-((2R)-1-(4-(4-fluorophenyl)-2-isopropyl-2,8-diazaspiro[4.5]decan-8-yl)-3-methyl-1-oxobutan-2-yl)-5-(trifluoromethyl)benzamide] yielded an IC50 of 44.4 nM.
